In patent publication EP4285905A1, “CABERGOLINE OR A PHARMACEUTICALLY ACCEPTABLE SALT OR SOLVATE THEREOF, FOR USE IN PREVENTION OR DELAY OF POST-PREGNANCY BREAST CANCER IN A FEMALE MAMMAL” (Consejo Superior de Investigaciones Cientificas, priority 2022, dated 2023):

Experiments:
Brca1/P53-deficient mice = test: Quantification of adipose and ductal tissue areas in the breast (hematoxylin-eosin, ImageJ); type: in vivo; conditions: for adipose tissue area: vs untreated lactating multiparous mice, P < 0.001
Source text: Subsequently, the same groups of animals indicated were generated and samples were collected from the mammary glands at 1, 3, 7, 30 and 60 days post-gestation (in non-lactating multiparous) or post-weaning (in lactating multiparous, with and without treatment with cabergoline) (N = 5 mice per group at each time studied).
The left inguinal breast of each mouse was embedded in paraffin for further study. Once removed from the animals, the breasts were fixed in 4% paraformaldehyde (Scharlau FO) for 24 hours and, subsequently, they were kept in 70% ethanol at a temperature of 4 °C, until they were processed in the Comparative Molecular Pathology Service of the Salamanca Cancer Research Center. Tissues were dehydrated by three 1-hour incubations in increasing concentrations of ethanol (60%, 80%, and 100%). Three other 1-hour incubations were carried out in xylol, to replace the dehydrating agent with a substance miscible in paraffin. Finally, three other incubations of 1 hour and 20 minutes were carried out with liquid paraffin, after which blocks were made with a mould suitable for the size of the tissue in a paraffin embedding station. When the paraffin blocks were completely cold, 2-µm-thick sections were made using a rotation microtome (Leica RM2255).
Hematoxylin and eosin staining was performed in the Comparative Molecular Pathology Service of the Salamanca Cancer Research Center using a battery of manual staining following the processes: deparaffinization in xylol, rehydration with ethanol at different graduations, hematoxylin and eosin staining, dehydration with ethanol and clearance. Once the process was finished, the samples were mounted by adding a drop of non-aqueous DPX fixative and the coverslip was placed.
Adipose tissue area and ductal area were evaluated using ImageJ free software. The ductal area was defined as the surface occupied by the epithelium of the ducts together with the surrounding fibrous tissue stroma, excluding the area of the tubular lumen. To evaluate the ductal and adipocyte area, 10 photos were taken at 10X magnification of the surface of the mammary gland of each of the study animals, five photos in the distal area and five in the proximal area of the breast. The photos were taken randomly in each of these areas of the samples stained with hematoxylin-eosin, with a Leica DM1000 light microscope. […] In the proximal area, more adipose tissue and less ductal tissue were observed than in the distal area, and vice versa. For this reason, only the values of the distal zone were determined to carry out the analyses.
The quantification was expressed as a percentage of the total area. […]

recombinant (RFP+) cells = test: Flow cytometry of RFP+ recombinant mammary epithelial subpopulations; type: in vivo, mice; conditions: 60 days after weaning
Source text: The mouse model used for the cytometry studies was obtained by crossing the conditional model K14Cre; Brca1^F/F; P53^F/F with a model that expresses red fluorescent protein (RFP) under the promoter of the ROSA26 locus. This promoter has a stop codon flanked by LoxP sites that recognize Cre-recombinase. In this way, cells that lose Brca1 (gene) and P53 (gene) due to the action of Cre-recombinase also express RFP and emit fluorescence. The mouse was obtained from the European repository (European mutant mouse archive - EMMA) and was generated by the group of Hans Jörg Fehling from the Institute of Immunology of the Clinical University of Ulm, Germany. For these studies, between 6 and 11 mice from the different study groups were used.
Once the mouse mammary glands were removed, they were incubated in a 50 mL tube containing 9 mL of medium (Gibco DMEM/F-12, #11554546, Fisher Scientific), 500 µL of collagenase and 500 µL of hyaluronidase, at a temperature of 37 °C for 16 hours. After incubation, the aggregated tissue debris was disrupted by pipetting for approximately 30 seconds and the sample was centrifuged for 5 minutes at 350 g at room temperature. Centrifugation was performed, in all examples, using the Eppendorf 5804R refrigerated centrifuge including an A-44 rotor with a radius of 15 cm (width (metric) exterior 634 mm; depth (metric) 550 mm, height (metric) exterior 342 mm). The supernatant was discarded and the pellet formed was resuspended in 2 mL of ACK buffer (Gibco ACK Lysing Buffer, #A10492-01, Fisher Scientific) to lyse the erythrocytes present in the sample. The disaggregated sample was incubated in ACK buffer for 5 minutes at room temperature and subsequently centrifuged at 350 g for 5 minutes. After centrifugation, the supernatant was discarded and 1 mL of trypsin was added at 37 °C. The pellet was resuspended by pipetting for 2 minutes. Next, 10 mL of saline (Gibco HBSS, #14025-092, Fisher Scientific) supplemented with 10 mM HEPES buffer and fetal bovine serum was added and centrifuged for 5 minutes at 350 g at room temperature. Then, the supernatant was discarded and 1 mL of the buffered saline solution (hereinafter HF) and 100 µL of warm DNase were added, carefully pipetted for 1 minute and 5 mL of cold HF was added, to stop action of the DNase. The mixture was filtered through a 40 µm filter and washed with 5 mL of cold HF. It was centrifuged for 5 minutes at 350 g, at a temperature of 4 °C and the supernatant was removed after centrifugation. Subsequently, the mixture was resuspended in 5 mL of cold HF and the mixture was distributed in cytometry tubes with a 35 µm filter. 4/5 of the sample was allocated for immunolabeling and the remaining 1/5 was allocated as an unlabelled control. It was centrifuged for 5 minutes at 1200 rpm (= 20 s^-1) at a temperature of 4 °C and the supernatant was decanted after centrifugation. Subsequently, 52 µL of blocking solution, consisting of 50 µL of HF and 2 µL of anti-CD16/CD32 antibody, were added, gently vortexed and incubated for 10 minutes at 4 °C. Next, 50 µL of immuno-labelling solution made up of the following antibodies: CD45 FITC, CD140 FITC, CD31 FITC, Ter119 FITC, CD49fAPC, CD29 APC-Cy7, CD61 BV421, Sca1 PerCP-Cy5, EpCAM PE- Cy7, e506, was added to the tube intended for staining and 50 µL of HF was added to the control tube. After incubating for 30 minutes and performing a wash, the samples were acquired with the LSR Fortessa X-20 Cell Analyzer cytometer (BD Biosciences). […]

[1] = KO-RFP+ group, vs nulliparous and lactating multiparous mice
[2] = treated vs untreated multiparous mice

With `C=CCN1C[C@H](C(=O)N(CCCN(C)C)C(=O)NCC)C[C@@H]2c3cccc4[nH]cc(c34)C[C@H]21` [cabergoline, 1-[(6-allylergolin-8ß-yl)-carbonyl]-1-[3-(dimethylamino)propyl]-3-ethylurea] the adipose tissue area (Brca1/P53-deficient mice; 3 days after weaning) was “statistically significant increase in adipose tissue”, the adipose tissue area (Brca1/P53-deficient mice; 7 days after weaning) was “statistically significant increase in adipose tissue” and the ductal area (Brca1/P53-deficient mice; 30 days post-lactational involution) was “drastic decrease in ductal area”. For the same compound, the “ductal area (epithelial component)” value (Brca1/P53-deficient mice; 60 days post-lactational involution) was “great reduction of the epithelial component”, the “ductal precursor cells (CD61+) with respect to total recombinant ductal cells” value (recombinant (RFP+) cells; [1]) was “relative increase in precursors” and the “mature ductal cells (CD61-) with respect to total recombinant ductal cells” value (recombinant (RFP+) cells; [1]) was “relative decrease in mature ductal cells”. The “ductal cell subpopulations with respect to total recombinant epithelial cells” value (recombinant (RFP+) cells; [2]) was “no statistically significant differences”, the “proportion of luminal and basal cells within recombinant cells (RFP+)” value (recombinant (RFP+) cells; [2]) was “No significant differences” and the “proportion of luminal ductal cells (Sca1+) within recombinant luminal cells” value (recombinant (RFP+) cells; [2]) was “no significant differences”.
